Test results as given in patent US9925238B2, “Use of peptide for treating angiogenesis-related diseases” (MacKay Memorial Hospital, priority 2014, dated 2018).

Key:
[1] = tested on: human umbilical vein endothelial cells (HUVECs); assay: Matrigel angiogenesis assay (tube formation) with HUVECs; type: cell-based; settings: FIGS. 5 and 6; for inhibition of angiogenesis of HUVEC cells on the Matrigel: 24 hours
Protocol: (§1) A total of 200 μl Matrigel was added into wells of a 24-well plate and polymerized for 30 minutes at 37° C. EPC suspensions containing various concentrations of Dsg2 peptide (0.25 mg/ml, 0.5 mg/ml, or 1 mg/ml), scramble peptide (1 mg/ml) or Avastin (10 μg/ml) were plated on the Matrigel-coated wells at a density of 5×10^4 cells (EPCs, or HUVECs) in MV2 medium containing 2% FBS for 24 hours at 37° C. in a 5% CO2 humidified incubator. Each sample was tested in triplicate in the same plate, and wells were photographed with a Leica camera (×40 magnification).
(§2) Tube length in relative to the control was quantified by measuring tubes in 5 randomly chosen fields from each well with QWIN software. Experiments were repeated more than three times. The values were expressed as the means±S.D. for the three independent experiments.

[2] = tested on: C57BL/6 mice; assay: Oxygen-induced retinopathy (OIR) retinal neovascularization model; type: in vivo, mouse; settings: FIGS. 9 and 10; for inhibition of angiogenesis (retinal neovascularization) in the OIR model: intravitreal injection at P12, eyes at P17, compared with PBS or scramble peptide, p<0.01
Protocol: The neonatal mouse (C57BL/6) pups of normoxia group (serving as control) were kept in room air until postnatal day 12 (P12), while the pups of OIR group were maintained with their nursing mothers for 5 days in 75% oxygen at P7 and then returned to room air (relative hypoxia) so as to generate oxygen-induced neovascularization at P12. 1 μl of Dsg2 peptide (25 μg), scramble peptide (25 μg) and Avastin (10 μg) were intravitreally injected into mouse eyes at P12, respectively. The animals were killed, and the mouse eyes were enucleated at P17.
Mouse eye cups were fixed in 4% paraformaldehyde for 2 hours. The retina was carefully separated from eye cup, and then incubated with fluorescein-labeled isolectin-B4 (Life technologies) at 4° C. overnight. Samples were coverslipped with Vectashield medium (Vector Laboratories), and the lectin labeling was examined by use of the 20× objective of a Zeiss LSM-510 confocal microscope. Fluorescence volume measurements were recorded by creating image stacks of optical slices within lesions with QWIN software. Values for implicit volume were designated as mean total surface area.

[3] = tested on: human endothelial progenitor cells (EPCs); assay: Matrigel angiogenesis assay (tube formation) with EPCs; type: cell-based; settings: for inhibition of angiogenesis in EPCs: FIGS. 3 and 4
Protocol: as §1, §2

[4] = tested on: C57BL/6 mice; assay: Matrigel plug assay; type: in vivo, mouse; settings: 7 days
Protocol: 0.5 ml of growth factor-reduced liquid Matrigel respectively containing: (1) heparin (60 U/mL); (2) heparin (60 U/mL), VEGF (10 ng/ml), and PBS; (3) heparin (60 U/mL), VEGF (10 ng/ml), and scramble peptide (1 mg/ml); and (4) heparin (60 U/mL), VEGF (10 ng/ml), and Dsg2 peptide (1 mg/ml) were subcutaneously injecting into the skin near the abdominal midline of C57BL/6 mice. 7 days after injection, mice were euthanized, and Matrigel plugs were surgically removed and analyzed.
For macroscopic analysis of angiogenesis, hemoglobin content in Matrigel was measured with Drabkin reagent 525 (Sigma-Aldrich). Briefly, the Matrigel plug sample was re-liquefied by being place at 4° C. on ice with red cell lysis reagent for 24 hours. After brief centrifugation, 20 μl of supernatant was added to 100 μl of Drabkin solution. The mixture was allowed to stand 30 minute at room temperature, and the absorbance was measured at 540 nm. The obtained hemoglobin content was normalized to the plug weight and the value was expressed as μg hemoglobin/mg Matrigel plug.

Row | Substance | inhibition of angiogenesis of HUVEC cells on the Matrigel [1] | inhibition of angiogenesis (retinal neovascularization) in the OIR model [2] | inhibition of angiogenesis (tube formation) of EPCs on Matrigel ([3]; fragments at 1.0 mg/ml, p<0.05, FIG. 2) | inhibition of angiogenesis in EPCs ([3]; 0.5 mg/ml (200 uM)) | inhibition of angiogenesis in EPCs ([3]; 1.0 mg/ml (400 uM)) | reduction of tube formation ([3]; 1.0 mg/ml (400 uM), p<0.05) | relative tube length in relative to the control group ([3]; 1.0 mg/ml (400 uM), p<0.05) | efficacy in inhibiting tube formation compared with Avastin ([1]; HUVECs on Matrigel) | formation of newly formed blood vessels in Matrigel plug ([4]; 1 mg/ml in plug with heparin and VEGF, compared with PBS or scramble peptide, FIG. 7) | hemoglobin content of Matrigel plug ([4]; 1 mg/ml in plug, vs plug containing PBS or scramble peptide, p<0.05, FIG. 8) | anti-angiogenic efficacy compared with Avastin ([2]; OIR model, intravitreal)
1 | Bevacizumab [Avastin, reference compound] | capable of inhibiting angiogenesis | significantly inhibited the angiogenesis | – | – | – | – | – | – | – | – | –
2 | IVSLEPAYPP (IP10) [fragment of the predicted EC2 domain of Dsg2 peptide] | – | – | can inhibit the angiogenesis | – | – | – | – | – | – | – | –
3 | KINATDADEPNTLNSKISYRC (extra C-terminal cysteine; Dsg2-derived peptide) [Dsg2-derived short peptide, KR20 fragment conjugated with one extra cysteine residue] | capable of inhibiting angiogenesis | significantly inhibited the angiogenesis | – | significantly inhibited angiogenesis | significantly inhibited angiogenesis | more than 50% | less than 50% | more effective than Avastin | capable of inhibiting the formation of newly formed blood vessels | significantly lower | better than that of Avastin
